Source: patent US6524584B2, “Saponin compositions and uses thereof” (priority 1996, dated 2003)

Columns and labels:
[1] = system: bovine serum albumin and cytochrome b5; conditions: mice; cited from earlier work
cytochrome b5 = conditions: saponin doses of 20 μg; cited from earlier work
E.G7-OVA target cells = test: Cytotoxic T-lymphocyte (CTL) assay, 51Cr release, splenic effector cells from immunized mice; format: in vivo, C57BL/6 mice; conditions: s.c. with ovalbumin, weeks 1, 3, 5
Experimental: (§1) All experiments were carried out in C57BL/6 mice (female, 8-12 weeks of age). The synergistic adjuvant-effect of the QS-21/QS-7 mixtures was assessed by two parameters: (1) the ability of these mixtures to improve antibody titers to a subunit antigen, ovalbumin, in mice; and (2) the ability of these mixtures to improve an ovalbumin-specific cytotoxic T lymphocyte (killer cell) response in mice.
The experimental techniques were the following. The mice were immunized subcutaneously at week 1, 3, and 5 with 0.2 ml of the indicated formulations in phosphate-buffered saline. Mice were immunized in groups of five. Sera and spleens were harvested at weeks 7 to 9. Sera was assayed for anti-ovalbumin antibody response by enzyme immunoassay. Briefly, a 96 well Immulon plate was coated with 10 μg/ml ovalbumin in phosphate-buffered saline (PBS) overnight at 4° C. These plates were blocked with 10% normal goat serum in PBS (diluent) for one hour at room temperature. Serial 1:10 dilutions of serum were made in diluent and were incubated on the plates for one hour at room temperature or overnight at 4° C. An enzyme conjugate of anti-mouse IgG (or anti-mouse IgG subclass) was diluted in diluent and incubated on the plate. A calorimetric enzyme substrate, tetramethylbenzidine, was used to assay for binding of anti-ovalbumin antibody. Spleens from immunized mice were used to assay for the cytotoxic T lymphocyte (CTL) response. The effector cells for the (CTL) assay were splenic mononuclear cells from the harvested spleens. The antigen-positive target cells for the assay were E.G7-OVA cells, which are an MHC class II antigen-negative EL4 mouse cell line, transfected with the ovalbumin gene. […] EL4 cells were used as an ovalbumin-negative target cell line. Prior to assay, splenic mononuclear cells were stimulated with antigen to induce maturation of precursor CTL in the effector cell population. The antigens used for stimulation were mitomycin C treated E.G7-OVA cells (incubated with spleen cells at a ratio of 20:1 spleen cells: E.G7-OVA cells) or denatured ovalbumin (25 μg/ml). […]

ovalbumin [2] = test: Serum anti-ovalbumin antibody response by enzyme immunoassay after immunization; format: in vivo, C57BL/6 mice; conditions: saponin dose 0.625 μg, alone
Experimental: as §1
The experimental techniques were the following. The mice were immunized subcutaneously at week 1, 3, and 5 with 0.2 ml of the indicated formulations in phosphate-buffered saline. Mice were immunized in groups of five. Sera and spleens were harvested at weeks 7 to 9. Sera was assayed for anti-ovalbumin antibody response by enzyme immunoassay. Briefly, a 96 well Immulon plate was coated with 10 μg/ml ovalbumin in phosphate-buffered saline (PBS) overnight at 4° C. These plates were blocked with 10% normal goat serum in PBS (diluent) for one hour at room temperature. Serial 1:10 dilutions of serum were made in diluent and were incubated on the plates for one hour at room temperature or overnight at 4° C. An enzyme conjugate of anti-mouse IgG (or anti-mouse IgG subclass) was diluted in diluent and incubated on the plate. A calorimetric enzyme substrate, tetramethylbenzidine, was used to assay for binding of anti-ovalbumin antibody. […]

ovalbumin [3] = conditions: doses below 2.5 μg, mice; cited from earlier work
ovalbumin [4] = conditions: at 2.5 μg or lower, mice; cited from earlier work
mice = conditions: mouse, in vivo; cited from earlier work

QS-17
antibody responses to bovine serum albumin and cytochrome b5 [1]: stimulate potent antibody responses
IgG2a response to cytochrome b5 (cytochrome b5): stimulate IgG2a response

QS-18
antibody responses to bovine serum albumin and cytochrome b5 [1]: stimulate potent antibody responses
IgG2a response to cytochrome b5 (cytochrome b5): stimulate IgG2a response

QS-21
stimulating a CTL response (E.G7-OVA target cells; saponin dose 0.625 μg): ineffective
stimulating a CTL response (E.G7-OVA target cells; saponin dose 1.25 μg): ineffective
stimulating a CTL response (E.G7-OVA target cells; saponin dose 20 μg): highly effective
antibody titer compared with no adjuvant (ovalbumin [2]): neither 10 μg QS-7 or 0.625 μg QS-21, individually, yields a titer that is higher than no adjuvant
adjuvant for raising an antibody response to ovalbumin (ovalbumin [3]): ineffective
CTL response to ovalbumin (ovalbumin [4]): minimal
antibody responses to bovine serum albumin and cytochrome b5 [1]: stimulate potent antibody responses
IgG2a response to cytochrome b5 (cytochrome b5): stimulate IgG2a response
toxicity in mice (mice): least toxic
